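Where inhibition never reached the appropriate level, the endpoint shown equals the highest concentration tested. Otherwise, values were interpolated linearly from a five-concentration, 48-hour dose response in 96-well plates. At the GI50, growth is halved.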 Active and inactive are the calls of the source. Rule as the data show it: active = GI50 up to about 1.1 µM and inactive = higher.
Key:
Assay in all cases: growth of human tumour cells (NCI), 48 h
A549 = test system: A549
UACC-62 = test system: UACC-62
M14 = test system: M14
OVCAR-5 = test system: OVCAR-5
NCI/ADR-RES = test system: NCI/ADR-RES
UACC-257 = test system: UACC-257
KM12 = test system: KM12
PC-3 = test system: PC-3
IGROV-1 = test system: IGROV-1
DU-145 = test system: DU-145
EKVX = test system: EKVX
MDA-MB-435 = test system: MDA-MB-435
SN12C = test system: SN12C
HCT-15 = test system: HCT-15
DMS-273 = test system: DMS-273
UO-31 = test system: UO-31
HCC 2998 = test system: HCC 2998
HOP-18 = test system: HOP-18
LXFL 529 = test system: LXFL 529
HOP-92 = test system: HOP-92

Measured: GI50

COC(=O)C1=C(OC(=O)/C(=C/c2ccc(Cl)cc2)c2ccc(Cl)cc2)C(C(=O)OC)[C@]2(O)[C@@H](C(=O)OC)[C@H]1C[C@@H](c1ccccc1)[C@@H]2C(=O)OC (stereo not given in full)
inactive: A549 52.8 µM | UACC-62 > 100 µM | M14 30.1 µM | OVCAR-5 > 100 µM | NCI/ADR-RES > 100 µM | UACC-257 > 100 µM | KM12 > 100 µM | PC-3 62.5 µM | IGROV-1 38.8 µM | DU-145 > 100 µM | EKVX 70.5 µM | MDA-MB-435 > 100 µM | SN12C > 100 µM
> 100 µM: HCT-15

COc1cc(/C=C(\C#N)C(N)=O)cc(Br)c1O
inactive: A549 > 100 µM | DMS-273 > 100 µM | OVCAR-5 > 100 µM | UO-31 96.6 µM | NCI/ADR-RES > 100 µM | HCC 2998 > 100 µM | UACC-257 > 100 µM | KM12 > 100 µM | HOP-18 > 100 µM | IGROV-1 > 100 µM
> 100 µM: HCT-15

CCCCN1C=CN2c3nc4cc(C)c(C)cc4n3C(C(=O)OC)=C(C(=O)OC)C12 (stereo not given)
> 100 µM: HCT-15
inactive: A549 > 100 µM | LXFL 529 > 100 µM | UACC-62 > 100 µM | M14 > 100 µM | DMS-273 > 100 µM | OVCAR-5 > 100 µM | UO-31 > 100 µM | HCC 2998 > 100 µM | UACC-257 > 100 µM | HOP-18 > 100 µM | HOP-92 > 100 µM | IGROV-1 > 100 µM | EKVX > 100 µM | SN12C > 100 µM

CC1SC(c2ccccc2)N(Nc2c3ccccc3nc3ccccc23)C1=O (stereo not given)
inactive: A549 58.5 µM | LXFL 529 43.3 µM | UACC-62 89.5 µM | M14 > 100 µM | DMS-273 > 100 µM | OVCAR-5 78.7 µM | UO-31 20.4 µM | HCC 2998 > 100 µM | UACC-257 83.6 µM | KM12 71.4 µM | IGROV-1 27 µM | EKVX 48.2 µM | SN12C > 100 µM
51.8 µM: HCT-15

C/C=C/c1cc(=O)c([C@@H]2OC(=O)c3cc(OC)cc(OC)c32)co1 [VERMISTATIN]
inactive: A549 58.6 µM | LXFL 529 24.5 µM | UACC-62 25.9 µM | M14 58.7 µM | UO-31 24.4 µM | HCC 2998 26 µM | UACC-257 29.1 µM | KM12 31.6 µM | HOP-92 49 µM | IGROV-1 37 µM | EKVX 65.5 µM

— ChEMBL document CHEMBL1201862, “PubChem BioAssay data set” (2004)
